In patent publication US8258114B2, “Modulation of glucose-6-phosphatase translocase expression” (Isis Pharmaceuticals, Inc., priority 2004, dated 2012):
Oligonucleotides are written 5' to 3', each unit as a sugar letter and its base; * is a phosphorothioate linkage, no mark a phosphodiester; rarer units and linkages stand in square brackets, end groups in braces. Plain capitals give the bases only. e = 2'-O-(2-methoxyethyl) (MOE); [5mC] = 5-methylcytosine; d = 2'-deoxy (DNA)

Tests used:
[1] = test system: human glucose-6-phosphatase translocase mRNA; experiment: Antisense inhibition of human glucose-6-phosphatase translocase mRNA in HepG2 cells (Table 11); assay type: cell-based; parameters: concentration or dose not given beside the values; settings: LIPOFECTIN, mRNA by real-time PCR
In short: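 HepG2 cells at 65-75% confluency transfected with 2′-MOE gapmer oligonucleotides using LIPOFECTIN (2.5 or 3 μg/mL per 100 nM oligo) for 4-7 h and harvested 16-24 h later. Target mRNA measured by RT real-time PCR and normalized to GAPDH or RiboGreen total RNA.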

[2] = test system: glucose-6-phosphatase translocase mRNA; experiment: Target reduction in liver: rat dose-response study (Table 12); assay type: in vivo; settings: Sprague-Dawley rats; for % Inhibition, target reduction in liver: three weeks; for target mRNA levels in rat liver (in words): 12.5 to 50 mg/kg
Protocol: (§1) Each treatment group was comprised of 4 animals.
At the end of the treatment period, animals were sacrificed and target reduction in liver was measured by real-time PCR as described in other examples herein. Results are shown in Table 12 as the average percent reduction in glucose-6-phosphatase translocase levels as compared to saline treated control.

[3] = Plasma glucose, cholesterol and triglycerides in normal Sprague-Dawley rats (Table 14); assay type: in vivo, rat; parameters: plasma GLUCOSE WK 0 / plasma GLUCOSE WK 3: unit not given beside the values; settings: for plasma triglycerides (in words): 12.5 to 50 mg/kg, three weeks
Protocol: as §1
To further assess the physiological effects resulting from inhibition of target mRNA, the rats were evaluated at the beginning (Wk 0) and at the end (Wk 3) of the treatment period for plasma glucose, plasma cholesterol, and plasma triglyceride levels. Triglycerides and cholesterol were measured by routine clinical analyzer instruments (e.g. Olympus Clinical Analyzer, Melville, N.Y.). Glucose levels were measured using a glucose analyzer, for example a YSI glucose analyzer (YSI Scientific, Yellow Springs, Ohio). Results are presented in Table 14 as the average level of plasma glucose, plasma cholesterol (CHOL), or plasma triglycerides (TRIG) measured per treatment group.

[4] = test system: mouse glucose-6-phosphatase translocase mRNA; experiment: Antisense inhibition of mouse glucose-6-phosphatase translocase mRNA in primary mouse hepatocytes, 150 nM, LIPOFECTIN (Table 22); assay type: cell-based; settings: real-time PCR
In short: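 Primary CD-1 mouse hepatocytes at 65-75% confluency transfected ~4-7 h at 37° C with 150 nM 5-10-5 2′-MOE gapmer phosphorothioate oligonucleotides plus LIPOFECTIN (2.5 or 3 μg/mL per 100 nM). Harvested 16-24 h post-treatment; mRNA by real-time RT-PCR, normalized to GAPDH or RiboGreen total RNA, expressed as percent inhibition.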

[5] = Body weight and tissue weights of normal Sprague-Dawley rats (Table 13); settings: for Spleen weight / Fat weight / Kidney weight / Liver weight: end of study; for Increases in body weights (in words): 12.5 to 50 mg/kg, throughout the study
Protocol: For three weeks, male Sprague-Dawley rats were injected twice-weekly with doses of 12.5 mg/kg, 25 mg/kg, or 50 mg/kg of ISIS 145760, ISIS 359543, or ISIS 366228. Each treatment group was comprised of 4 animals. Animals which received twice weekly injections of saline served as controls.
Body weight was monitored throughout the study period. […] Tissue weights were also measured at the end of the study.

[6] = 12.5 mg/kg twice weekly, saline 58
[7] = 12.5 mg/kg twice weekly, saline 69
[8] = 12.5 mg/kg twice weekly, saline 74
[9] = 12.5 mg/kg twice weekly, saline 135
[10] = 12.5 mg/kg twice weekly, saline 139
[11] = 12.5 mg/kg twice weekly, saline 140
[12] = 12.5 mg/kg twice weekly, saline 0.7
[13] = 12.5 mg/kg twice weekly, saline 1.8
[14] = 12.5 mg/kg twice weekly, saline 3
[15] = 12.5 mg/kg twice weekly, saline 15
[16] = 12.5 mg/kg twice weekly, week 3, saline 290

**Q.** With “CGGCCCATCTTGGTGCGGAT (e[5mC]*eG*eG*e[5mC]*e[5mC]*d[5mC]*dA*dT*d[5mC]*dT*dT*dG*dG*dT*dG*e[5mC]*eG*eG*eA*eT; antisense) [ISIS 145706]” as the sequence, how does the “% Inhib” value [1] read?
**A.** 96%

**Q.** And the “% Inhibition, target reduction in liver” value ([2]; 12.5 mg/kg twice weekly)?
**A.** 12%

**Q.** And the “% Inhibition, target reduction in liver” value ([2]; 25 mg/kg twice weekly)?
**A.** 56%

**Q.** What about the “% Inhibition, target reduction in liver” value ([2]; 50 mg/kg twice weekly) of the same sequence?
**A.** 77%

**Q.** What about the “target mRNA levels in rat liver (in words)” value [2] of the same sequence?
**A.** effective in reducing target mRNA levels in rat liver in a dose-dependent manner

**Q.** What about the “plasma cholesterol (CHOL) WK 3” value [3, 6] of the same sequence?
**A.** 51

**Q.** And the “plasma triglycerides (TRIG) WK 0” value [3, 7]?
**A.** 54

**Q.** What about the “plasma cholesterol (CHOL) WK 0” value [3, 8] of the same sequence?
**A.** 69

**Q.** What about the “plasma GLUCOSE WK 0” value [3, 9] of the same sequence?
**A.** 149

**Q.** And the “plasma GLUCOSE WK 3” value [3, 10]?
**A.** 151

**Q.** What about the “plasma triglycerides (TRIG) WK 3” value [3, 11] of the same sequence?
**A.** 61

**Q.** What about the “plasma GLUCOSE WK 0” value ([3]; 25 mg/kg twice weekly) of the same sequence?
**A.** 149

**Q.** What about the “plasma GLUCOSE WK 3” value ([3]; 25 mg/kg twice weekly) of the same sequence?
**A.** 148

**Q.** And the “plasma cholesterol (CHOL) WK 0” value ([3]; 25 mg/kg twice weekly)?
**A.** 80

**Q.** What about the “plasma cholesterol (CHOL) WK 3” value ([3]; 25 mg/kg twice weekly) of the same sequence?
**A.** 59

**Q.** And the “plasma triglycerides (TRIG) WK 0” value ([3]; 25 mg/kg twice weekly)?
**A.** 45

**Q.** What about the “plasma triglycerides (TRIG) WK 3” value ([3]; 25 mg/kg twice weekly) of the same sequence?
**A.** 58

**Q.** And the “plasma GLUCOSE WK 0” value ([3]; 50 mg/kg twice weekly)?
**A.** 148

**Q.** What about the “plasma GLUCOSE WK 3” value ([3]; 50 mg/kg twice weekly) of the same sequence?
**A.** 151

**Q.** What about the “plasma cholesterol (CHOL) WK 0” value ([3]; 50 mg/kg twice weekly) of the same sequence?
**A.** 79

**Q.** And the “plasma cholesterol (CHOL) WK 3” value ([3]; 50 mg/kg twice weekly)?
**A.** 57

**Q.** What about the “plasma triglycerides (TRIG) WK 0” value ([3]; 50 mg/kg twice weekly) of the same sequence?
**A.** 66

**Q.** And the “plasma triglycerides (TRIG) WK 3” value ([3]; 50 mg/kg twice weekly)?
**A.** 52

**Q.** And the “plasma triglycerides (in words)” value [3]?
**A.** prevented the increases in triglycerides observed in saline-treated animals

**Q.** And the “% Inhib of mouse glucose-6-phosphatase translocase mRNA levels” value [4]?
**A.** 54%

**Q.** And the Spleen weight [5, 12]?
**A.** 0.7 grams

**Q.** What about the Fat weight [5, 13] of the same sequence?
**A.** 1.5 grams

**Q.** And the Kidney weight [5, 14]?
**A.** 3 grams

**Q.** And the Liver weight [5, 15]?
**A.** 15 grams

**Q.** What about the Body weight [5, 16] of the same sequence?
**A.** 289 grams

**Q.** And the Fat weight ([5]; 25 mg/kg twice weekly)?
**A.** 1.3 grams

**Q.** What about the Kidney weight ([5]; 25 mg/kg twice weekly) of the same sequence?
**A.** 3 grams

**Q.** What about the Liver weight ([5]; 25 mg/kg twice weekly) of the same sequence?
**A.** 15 grams

**Q.** What about the Spleen weight ([5]; 25 mg/kg twice weekly) of the same sequence?
**A.** 1.0 grams

**Q.** What about the Body weight ([5]; 25 mg/kg twice weekly, week 3) of the same sequence?
**A.** 300 grams

**Q.** What about the Fat weight ([5]; 50 mg/kg twice weekly) of the same sequence?
**A.** 1.2 grams

**Q.** And the Kidney weight ([5]; 50 mg/kg twice weekly)?
**A.** 3 grams

**Q.** And the Liver weight ([5]; 50 mg/kg twice weekly)?
**A.** 16 grams

**Q.** What about the Spleen weight ([5]; 50 mg/kg twice weekly) of the same sequence?
**A.** 0.9 grams

**Q.** And the Body weight ([5]; 50 mg/kg twice weekly, week 3)?
**A.** 290 grams

**Q.** What about the “Increases in body weights (in words)” value [5] of the same sequence?
**A.** comparable to the increases in body weight observed for saline-treated control animals

**Q.** For “GTGCTTGGCAATGGTGCTGA (eG*eT*eG*e[5mC]*eT*dT*dG*dG*d[5mC]*dA*dA*dT*dG*dG*dT*eG*e[5mC]*eT*eG*eA; antisense) [ISIS 359543]”, which “% Inhib” value [1] is on record?
**A.** 74%

**Q.** What about the “% Inhibition, target reduction in liver” value ([2]; 12.5 mg/kg twice weekly) of the same sequence?
**A.** 50%

**Q.** What about the “% Inhibition, target reduction in liver” value ([2]; 25 mg/kg twice weekly) of the same sequence?
**A.** 62%

**Q.** What about the “% Inhibition, target reduction in liver” value ([2]; 50 mg/kg twice weekly) of the same sequence?
**A.** 77%

**Q.** What about the “target mRNA levels in rat liver (in words)” value [2] of the same sequence?
**A.** effective in reducing target mRNA levels in rat liver in a dose-dependent manner

**Q.** What about the “plasma cholesterol (CHOL) WK 3” value [3, 6] of the same sequence?
**A.** 57

**Q.** What about the “plasma triglycerides (TRIG) WK 0” value [3, 7] of the same sequence?
**A.** 69

**Q.** And the “plasma cholesterol (CHOL) WK 0” value [3, 8]?
**A.** 80

**Q.** What about the “plasma GLUCOSE WK 0” value [3, 9] of the same sequence?
**A.** 138

**Q.** And the “plasma GLUCOSE WK 3” value [3, 10]?
**A.** 165

**Q.** And the “plasma triglycerides (TRIG) WK 3” value [3, 11]?
**A.** 61

**Q.** What about the “plasma GLUCOSE WK 0” value ([3]; 25 mg/kg twice weekly) of the same sequence?
**A.** 138

**Q.** And the “plasma GLUCOSE WK 3” value ([3]; 25 mg/kg twice weekly)?
**A.** 154

**Q.** And the “plasma cholesterol (CHOL) WK 0” value ([3]; 25 mg/kg twice weekly)?
**A.** 82

**Q.** What about the “plasma cholesterol (CHOL) WK 3” value ([3]; 25 mg/kg twice weekly) of the same sequence?
**A.** 57

**Q.** And the “plasma triglycerides (TRIG) WK 0” value ([3]; 25 mg/kg twice weekly)?
**A.** 62

**Q.** What about the “plasma triglycerides (TRIG) WK 3” value ([3]; 25 mg/kg twice weekly) of the same sequence?
**A.** 37

**Q.** And the “plasma GLUCOSE WK 0” value ([3]; 50 mg/kg twice weekly)?
**A.** 135

**Q.** And the “plasma GLUCOSE WK 3” value ([3]; 50 mg/kg twice weekly)?
**A.** 136

**Q.** And the “plasma cholesterol (CHOL) WK 0” value ([3]; 50 mg/kg twice weekly)?
**A.** 87

**Q.** What about the “plasma cholesterol (CHOL) WK 3” value ([3]; 50 mg/kg twice weekly) of the same sequence?
**A.** 54

**Q.** And the “plasma triglycerides (TRIG) WK 0” value ([3]; 50 mg/kg twice weekly)?
**A.** 69

**Q.** And the “plasma triglycerides (TRIG) WK 3” value ([3]; 50 mg/kg twice weekly)?
**A.** 19

**Q.** And the “plasma triglycerides (in words)” value [3]?
**A.** dose-dependent reductions in plasma triglycerides

**Q.** And the Spleen weight [5, 12]?
**A.** 0.9 grams

**Q.** What about the Fat weight [5, 13] of the same sequence?
**A.** 1.4 grams

**Q.** And the Kidney weight [5, 14]?
**A.** 3 grams

**Q.** What about the Liver weight [5, 15] of the same sequence?
**A.** 15 grams

**Q.** And the Body weight [5, 16]?
**A.** 285 grams

**Q.** What about the Fat weight ([5]; 25 mg/kg twice weekly) of the same sequence?
**A.** 1.3 grams

**Q.** And the Kidney weight ([5]; 25 mg/kg twice weekly)?
**A.** 3 grams

**Q.** And the Liver weight ([5]; 25 mg/kg twice weekly)?
**A.** 16 grams

**Q.** What about the Spleen weight ([5]; 25 mg/kg twice weekly) of the same sequence?
**A.** 1.1 grams

**Q.** And the Body weight ([5]; 25 mg/kg twice weekly, week 3)?
**A.** 295 grams

**Q.** What about the Fat weight ([5]; 50 mg/kg twice weekly) of the same sequence?
**A.** 1.0 grams

**Q.** And the Kidney weight ([5]; 50 mg/kg twice weekly)?
**A.** 3 grams

**Q.** What about the Liver weight ([5]; 50 mg/kg twice weekly) of the same sequence?
**A.** 13 grams

**Q.** What about the Spleen weight ([5]; 50 mg/kg twice weekly) of the same sequence?
**A.** 1.4 grams

**Q.** What about the Body weight ([5]; 50 mg/kg twice weekly, week 3) of the same sequence?
**A.** 277 grams

**Q.** And the “Increases in body weights (in words)” value [5]?
**A.** comparable to the increases in body weight observed for saline-treated control animals
